Measurements as given in article PMC9828467 (Chemmedchem, 2022).

Assays:
plasmin = conditions: cited from earlier work
[1] = target: Plasmin from human plasma (Homo sapiens, UniProt P00747); assay: Plasmin inhibition assay with chromogenic substrate S-2251; assay type: biochemical; conditions: ratio to Ki of monovalent AMB
Sequence of Plasmin from human plasma (P00747 581-810 limits assumed): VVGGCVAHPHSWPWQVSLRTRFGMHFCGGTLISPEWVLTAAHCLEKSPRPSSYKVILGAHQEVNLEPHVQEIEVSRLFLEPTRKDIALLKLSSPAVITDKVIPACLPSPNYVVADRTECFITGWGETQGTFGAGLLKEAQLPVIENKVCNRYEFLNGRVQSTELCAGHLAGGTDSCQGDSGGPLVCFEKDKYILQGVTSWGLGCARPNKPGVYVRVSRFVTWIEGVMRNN
Sequence of Plasmin from human plasma (P00747 98-580 partner limits assumed): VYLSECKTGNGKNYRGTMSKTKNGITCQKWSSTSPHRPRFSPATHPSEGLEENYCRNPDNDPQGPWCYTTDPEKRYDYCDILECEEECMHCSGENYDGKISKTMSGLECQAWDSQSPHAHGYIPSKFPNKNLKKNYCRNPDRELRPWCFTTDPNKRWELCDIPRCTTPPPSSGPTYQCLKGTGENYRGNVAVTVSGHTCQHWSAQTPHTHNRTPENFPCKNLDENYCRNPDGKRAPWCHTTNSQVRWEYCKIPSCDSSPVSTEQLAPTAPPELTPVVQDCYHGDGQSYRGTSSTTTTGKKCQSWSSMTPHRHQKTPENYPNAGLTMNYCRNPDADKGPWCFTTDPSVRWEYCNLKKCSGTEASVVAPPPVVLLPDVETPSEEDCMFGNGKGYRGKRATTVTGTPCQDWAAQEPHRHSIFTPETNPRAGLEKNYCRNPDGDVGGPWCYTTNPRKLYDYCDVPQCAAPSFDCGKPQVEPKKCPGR

For `N=C(N)c1ccc(OCCCCCOc2ccc(C(=N)N)cc2)cc1` [Pentamidine, reference compound], the “Fold stronger plasmin inhibitor than the strongest monovalent benzamidine” value (plasmin) is given as 13 fold and the “rp: relative potency = Ki AMB/Ki multi” value [1] is given as 664.3.

In the case of `N=C(N)c1ccc(CNC(=O)CCOCCOCCOCCOCCNC(=O)CN(CC(=O)NCCOCCOCCOCCOCCC(=O)NCc2ccc(C(=N)N)cc2)CC(=O)NCCOCCOCCOCCOCCC(=O)NCc2ccc(C(=N)N)cc2)cc1` [Tri‐PEG4−AMB], the “rp: relative potency = Ki AMB/Ki multi” value [1] is reported as 27.6.

With `COCCOCCOCCOCCOCCOCCOCCOCCOCCOCCOCCOCCOCCOCCOCCOCCOCCOCCOCCOCCOCCOCCOCCOCCOCCC(=O)NCc1ccc(C(=N)N)cc1` [m‐dPEG24−AMB] the “rp: relative potency = Ki AMB/Ki multi” value [1] was 2.7.

For `COCCOCCOCCOCCOCCOCCOCCOCCOCCOCCOCCOCCOCCC(=O)NCc1ccc(C(=N)N)cc1` [m‐dPEG12−AMB], the “rp: relative potency = Ki AMB/Ki multi” value [1] was 3.9.
